Experimental data from patent US6723747B2, “Substituted 6H-DiBenzo[c,h]chromenes as estrogenic agents” (Wyeth, priority 2001, dated 2004).

What was measured:
129 SvE mice = test: Mouse uterotrophic test procedure (Procedure 2); assay type: in vivo; settings: 50 mg/kg subcutaneously, 4 days, immature mice; first experiment, vehicle 9.5 ± 0.3
Description: Procedure 2: Sexually immature (18 days of age) 129 SvE mice were obtained from Taconic and provided unrestricted access to a casein-based diet (Purina Mills 5K96C) and water. On day 22, 23, 24 and 25 the mice were dosed subcutaneously with compound or vehicle (corn oil). There were six mice/group and they were euthanized approximately 6 hours after the last injection by CO2 asphyxiation and pneumothorax. Uteri were removed and weighed after trimming associated fat and expressing any internal fluid. The following results (Table (2)) were obtained for representative compounds from the invention.

[1] = system: progesterone receptor mRNA in the preoptic area of the rat brain; test: Progesterone receptor mRNA regulation test procedure; assay type: in vivo; settings: 10 mg/kg, vehicle 189.2 ± 27.2
Excerpt: This test procedure can be used to evaluate the estrogenic or antiestrogenic activity of compounds from this invention [Shughrue, et al., Endocrinology 138: 5476-5484 (1997)].

Lewis rats = test: Lewis rat adjuvant-induced arthritis, treatment test procedure; assay type: in vivo; settings: for joint inflammation score (maximal score per day 12): 10 mg/kg sc daily, treatment begun Day 8 after adjuvant
HLA-B27 rats = test: HLA-B27 rat model of arthritis; assay type: in vivo; settings: 10 mg/kg orally once daily, Study 2
Excerpt: The degree of arthritis severity is monitored daily in terms of the following disease indices: Hindpaw erythema, hindpaw swelling, tenderness of the joints, and movements and posture. An integer scale of 0 to 3 is used to quantify the level of erythema (0=normal paw, 1=mild erythema, 2=moderate erythema, 3=severe erythema) and swelling (0=normal paw, 1=mild swelling, 2=moderate swelling, 3=severe swelling of the hind paw). The maximal score per day is 12.
Evaluation in the HLA-B27 Rat model of arthritis. Representative compounds of the invention were evaluated in the HLA-B27 rat standard pharmacological test procedure which emulates arthritis in humans. The following briefly describes the procedure used and results obtained. Male HLA-B27 rats (8-10 weeks old) were obtained from Taconic and provided unrestricted access to a food (PMI Lab diet 5001) and water. Rats were dosed orally once daily with either vehicle (2% tween-80/0.5% methylcellulose) or test compound (10 mg/kg) for 26 days. Joint scores and histology are evaluated as described above for the Lewis rat model of adjuvant-induced arthritis.

human ERβ = molecular target: T1, human ERβ (Homo sapiens, UniProt Q92731); test: Radioligand binding competition with [3H]-17β-estradiol, ERβ; settings: human ERβ ligand binding domain, read-out: ER-β IC50
T1 construct: M214-Q530 of human ERβ; Flag (C); made in house; host or cells: E. coli BL21(DE3), clarified lysate

[2] = tarsal joints, 10 mg/kg, vehicle 2.58 ± 0.38

T1 sequence (Q92731 214-530): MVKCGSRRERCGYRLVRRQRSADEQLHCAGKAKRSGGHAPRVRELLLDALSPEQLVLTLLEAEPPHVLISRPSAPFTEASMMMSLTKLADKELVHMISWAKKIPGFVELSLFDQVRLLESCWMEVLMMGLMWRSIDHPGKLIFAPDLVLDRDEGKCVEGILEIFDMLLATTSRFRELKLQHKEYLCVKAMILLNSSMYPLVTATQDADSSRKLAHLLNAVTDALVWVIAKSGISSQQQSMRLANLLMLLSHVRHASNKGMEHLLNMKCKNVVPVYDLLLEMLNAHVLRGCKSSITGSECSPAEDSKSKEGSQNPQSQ

In the case of N#Cc1cc2c(c3ccc(O)cc13)OCc1cc(O)ccc1-2 [Example 1d, 2,8-Dihydroxy-6H-dibenzo[c,h]chromene-12-carbonitrile], the “mean uterine weight ± SEM” value (129 SvE mice) is reported as 9.8 ± 0.5 mg, the “Progesterone receptor mRNA (mean ± stdev)” value [1] is reported as 403.9 ± 19.1 arbitrary units and the melting point is reported as over 250 °C. The “joint inflammation score (maximal score per day 12)” value (Lewis rats; day 1, vehicle 10.83) was 11.33, the “joint inflammation score (maximal score per day 12)” value (Lewis rats; day 2, vehicle 11.00) was 11.15 and the “joint inflammation score (maximal score per day 12)” value (Lewis rats; day 3, vehicle 10.83) was 11.33. For the same compound, the “joint inflammation score (maximal score per day 12)” value (Lewis rats; day 4, vehicle 11.33) was 9.83, the “joint inflammation score (maximal score per day 12)” value (Lewis rats; day 5, vehicle 11.50) was 8.83 and the “joint inflammation score (maximal score per day 12)” value (Lewis rats; day 6, vehicle 11.50) was 7.83. The “joint inflammation score (maximal score per day 12)” value (Lewis rats; day 7, vehicle 11.50) was 6.16, the “joint inflammation score (maximal score per day 12)” value (Lewis rats; day 8, vehicle 11.50) was 5.00 and the “joint inflammation score (maximal score per day 12)” value (Lewis rats; day 9, vehicle 11.00) was 4.33. For the same compound, the “joint inflammation score (maximal score per day 12)” value (Lewis rats; day 10, vehicle 11.00) was 2.66, the “joint inflammation score (maximal score per day 12)” value (Lewis rats; day 11, vehicle 10.66) was 1.83 and the “joint inflammation score (maximal score per day 12)” value (Lewis rats; day 12, vehicle 10.66) was 1.83. For the same compound, the “joint inflammation score (maximal score per day 12)” value (Lewis rats; day 13, vehicle 10.50) was 2.66, the “joint inflammation score (maximal score per day 12)” value (Lewis rats; day 14, vehicle 9.83) was 2.66 and the “joint inflammation score (maximal score per day 12)” value (Lewis rats; day 15, vehicle 8.10) was 2.00. The “joint inflammation score (maximal score per day 12)” value (Lewis rats; day 16, vehicle 7.35) was 2.00, the “joint inflammation score (maximal score per day 12)” value (Lewis rats; day 17, vehicle 6.50) was 1.50 and the “Tidemark Integrity (0-1), Mankin score” value (Lewis rats; tarsal joints, 10 mg/kg, vehicle 0) was 0. For the same compound, the “Pannus (0-1), synovitis histological score, mean ± SD” value (Lewis rats; tarsal joints, 10 mg/kg, vehicle 1.00 ± 0.89) was 0.08 ± 0.20, the “Fibroplasia (0-3), synovitis histological score, mean ± SD” value (Lewis rats; tarsal joints, 10 mg/kg, vehicle 1.75 ± 0.42) was 0.75 ± 0.42 and the “Saffranin-O/Fast Green Staining (0-4), Mankin score, mean ± SD” value (Lewis rats; tarsal joints, 10 mg/kg, vehicle 2.50 ± 0.32) was 1.25 ± 0.61. The “Cartilage Cells (0-3), Mankin score, mean ± SD” value (Lewis rats; [2]) was 0.58 ± 0.38, the “Synovial Structure (0-3), synovitis histological score, mean ± SD” value (Lewis rats; [2]) was 1.75 ± 0.52 and the “Cartilage Structure (0-6), Mankin score, mean ± SD” value (Lewis rats; tarsal joints, 10 mg/kg, vehicle 2.83 ± 0.26) was 1.67 ± 0.41. For the same compound, the “Inflammatory Cells (0-3), synovitis histological score, mean ± SD” value (Lewis rats; tarsal joints, 10 mg/kg, vehicle 2.92 ± 0.20) was 1.33 ± 0.41, the “Total Mankin Score (0-14), mean ± SD” value (Lewis rats; tarsal joints, 10 mg/kg, vehicle 7.92 ± 0.74) was 3.50 ± 1.27 and the “Total Synovitis Score (0-10), mean ± SD” value (Lewis rats; tarsal joints, 10 mg/kg, vehicle 8.25 ± 1.57) was 3.92 ± 1.36. For the same compound, the joint inflammation score (HLA-B27 rats; day 1, vehicle 0) was 0, the joint inflammation score (HLA-B27 rats; day 2, vehicle 0) was 0 and the joint inflammation score (HLA-B27 rats; day 3, vehicle 0) was 0. It also gave a joint inflammation score (HLA-B27 rats; day 4, vehicle 0) of 0, a joint inflammation score (HLA-B27 rats; day 5, vehicle 0) of 0 and a joint inflammation score (HLA-B27 rats; day 6, vehicle 0) of 0. The joint inflammation score (HLA-B27 rats; day 7, vehicle 0) was 0, the joint inflammation score (HLA-B27 rats; day 8, vehicle 2.5) was 2 and the joint inflammation score (HLA-B27 rats; day 9, vehicle 3.75) was 1.25. The joint inflammation score (HLA-B27 rats; day 10, vehicle 2.75) was 1, the joint inflammation score (HLA-B27 rats; day 11, vehicle 3.5) was 0 and the joint inflammation score (HLA-B27 rats; day 12, vehicle 1.25) was 0.5. The joint inflammation score (HLA-B27 rats; day 13, vehicle 1.25) was 0.25, the joint inflammation score (HLA-B27 rats; day 14, vehicle 1.25) was 0 and the joint inflammation score (HLA-B27 rats; day 15, vehicle 5.25) was 0.25. The joint inflammation score (HLA-B27 rats; day 16, vehicle 4.5) was 1, the joint inflammation score (HLA-B27 rats; day 17, vehicle 3.5) was 1 and the joint inflammation score (HLA-B27 rats; day 18, vehicle 3.75) was 0.5. The joint inflammation score (HLA-B27 rats; day 19, vehicle 5.5) was 0.75, the joint inflammation score (HLA-B27 rats; day 22, vehicle 3.25) was 0.25 and the joint inflammation score (HLA-B27 rats; day 23, vehicle 6.5) was 2. For the same compound, the joint inflammation score (HLA-B27 rats; day 24, vehicle 6.5) was 2, the joint inflammation score (HLA-B27 rats; day 25, vehicle 6.25) was 2 and the joint inflammation score (HLA-B27 rats; day 26, vehicle 7) was 1.75. For the same compound, the IC50 (human ERβ) was 1.8 nM.
